Here are results for two compounds from ChEMBL document CHEMBL2346515, “Discovery of 4-alkylamino-7-aryl-3-cyanoquinoline LRRK2 kinase inhibitors” (Bioorg Med Chem Lett, 2013).

What is called inhibition is the relative decrease from the control value, in per cent. Broadly, the inhibition in vivo is the share of the control response that was lost under treatment. A low value points to a response near the control.

The target in data set [1] is Dual specificity tyrosine-phosphorylation-regulated kinase 1B (Homo sapiens) (UniProt Q9Y463). Nature of the data set: Inhibition of DYRK1B (unknown origin) at 10 uM by single point assay.
Data set [2] concerns the target T1, Dual specificity protein kinase TTK (Homo sapiens) (UniProt P33981).
T1 sequence (whole entry): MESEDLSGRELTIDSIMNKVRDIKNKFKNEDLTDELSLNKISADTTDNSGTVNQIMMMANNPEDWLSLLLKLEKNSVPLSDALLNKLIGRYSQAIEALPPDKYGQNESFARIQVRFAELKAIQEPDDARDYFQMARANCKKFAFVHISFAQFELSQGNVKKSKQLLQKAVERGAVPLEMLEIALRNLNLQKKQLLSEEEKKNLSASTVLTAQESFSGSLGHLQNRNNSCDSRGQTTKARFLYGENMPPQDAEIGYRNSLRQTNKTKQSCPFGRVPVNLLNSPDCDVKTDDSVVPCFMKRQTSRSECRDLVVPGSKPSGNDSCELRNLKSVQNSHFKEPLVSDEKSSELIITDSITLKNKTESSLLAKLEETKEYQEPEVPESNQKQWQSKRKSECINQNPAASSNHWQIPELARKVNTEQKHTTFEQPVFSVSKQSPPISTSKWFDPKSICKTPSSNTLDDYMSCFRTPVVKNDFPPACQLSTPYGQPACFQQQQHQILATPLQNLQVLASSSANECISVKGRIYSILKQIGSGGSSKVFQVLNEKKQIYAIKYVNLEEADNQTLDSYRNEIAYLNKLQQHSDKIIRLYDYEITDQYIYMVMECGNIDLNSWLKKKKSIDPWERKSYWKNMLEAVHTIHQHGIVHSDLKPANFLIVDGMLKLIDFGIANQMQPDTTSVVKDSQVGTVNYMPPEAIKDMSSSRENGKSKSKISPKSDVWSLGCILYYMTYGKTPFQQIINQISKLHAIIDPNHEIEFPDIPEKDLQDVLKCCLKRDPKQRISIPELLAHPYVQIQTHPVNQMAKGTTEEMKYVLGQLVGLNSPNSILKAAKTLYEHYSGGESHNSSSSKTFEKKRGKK
Nature of the data set: Inhibition of TTK (unknown origin) at 10 uM by single point assay.

Data set [3] concerns the target Macrophage colony-stimulating factor 1 receptor (Homo sapiens) (UniProt P07333). The experiment in a line: Inhibition of CSF1R (unknown origin) at 10 uM by single point assay.
Data set [4] deals with Rho-associated protein kinase 2 (Homo sapiens) (UniProt O75116). The experiment in a line: Inhibition of ROCK2 (unknown origin) at 10 uM by single point assay.
Data set [5] concerns the target RAF proto-oncogene serine/threonine-protein kinase (Homo sapiens) (UniProt P04049). Nature of the data set: Inhibition of RAF1 (unknown origin) at 10 uM by single point assay.
Data set [6] concerns the target Proto-oncogene tyrosine-protein kinase receptor Ret (Homo sapiens) (UniProt P07949). The experiment in a line: Inhibition of RET (unknown origin) at 10 uM by single point assay.
Data set [7] concerns the target Cyclin-dependent kinase 2/cyclin A (Homo sapiens) (UniProt P24941+P20248+P78396). The experiment in a line: Inhibition of CDK2/cyclin A (unknown origin) at 10 uM by single point assay. In kind it is protein-complex assay.
The target in data set [8] is T2, Mitogen-activated protein kinase kinase kinase 7 (Homo sapiens) (UniProt O43318).
T2 sequence (whole entry): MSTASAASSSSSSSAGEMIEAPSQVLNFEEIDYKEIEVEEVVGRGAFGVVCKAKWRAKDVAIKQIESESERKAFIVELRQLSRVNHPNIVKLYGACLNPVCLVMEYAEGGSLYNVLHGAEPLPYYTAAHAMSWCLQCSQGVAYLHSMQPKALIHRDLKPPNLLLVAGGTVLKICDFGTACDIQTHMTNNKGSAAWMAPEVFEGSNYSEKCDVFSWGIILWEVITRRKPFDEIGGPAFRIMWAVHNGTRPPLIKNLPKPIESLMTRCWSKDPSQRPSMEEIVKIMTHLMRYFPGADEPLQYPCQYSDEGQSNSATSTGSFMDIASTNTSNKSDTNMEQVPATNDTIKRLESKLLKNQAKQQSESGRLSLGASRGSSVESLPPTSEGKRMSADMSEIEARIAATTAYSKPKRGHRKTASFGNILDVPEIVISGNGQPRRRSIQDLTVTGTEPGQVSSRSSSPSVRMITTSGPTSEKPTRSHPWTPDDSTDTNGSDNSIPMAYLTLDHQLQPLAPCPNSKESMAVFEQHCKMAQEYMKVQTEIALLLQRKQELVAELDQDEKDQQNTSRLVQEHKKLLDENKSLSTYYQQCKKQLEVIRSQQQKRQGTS
Nature of the data set: Inhibition of MAP3K7 (unknown origin) at 10 uM by single point assay.

The target of data set [9] is Mitogen-activated protein kinase 1 (Homo sapiens) (UniProt P28482). The experiment in a line: Inhibition of MAPK1 (unknown origin) at 10 uM by single point assay.
The target of data set [10] is Receptor-interacting serine/threonine-protein kinase 2 (Homo sapiens) (UniProt O43353). The experiment in a line: Inhibition of RIPK2 (unknown origin) at 10 uM by single point assay.
In data set [11] the target is Tyrosine-protein kinase SYK (Homo sapiens) (UniProt P43405). Nature of the data set: Inhibition of SYK (unknown origin) at 10 uM by single point assay.
The target in data set [12] is Tyrosine-protein kinase ABL1 (Homo sapiens) (UniProt P00519). The experiment in a line: Inhibition of ABL1 (unknown origin) at 10 uM by single point assay.
Data set [13] concerns the target Insulin receptor (Homo sapiens) (UniProt P06213). The experiment in a line: Inhibition of INSR (unknown origin) at 10 uM by single point assay.
In data set [14] the target is RAC-alpha serine/threonine-protein kinase (Homo sapiens) (UniProt P31749). The experiment in a line: Inhibition of AKT1 (unknown origin) at 10 uM by single point assay.
The target in data set [15] is Calcium/calmodulin-dependent protein kinase type II subunit alpha (Homo sapiens) (UniProt Q9UQM7). The experiment in a line: Inhibition of CAMK2alpha (unknown origin) at 10 uM by single point assay.
For data set [16], the target named is Protein kinase C beta type (Homo sapiens) (UniProt P05771). The experiment in a line: Inhibition of PKCbeta1 (unknown origin) at 10 uM by single point assay.
The target in data set [17] is Serine/threonine-protein kinase PLK3 (Homo sapiens) (UniProt Q9H4B4). Nature of the data set: Inhibition of PLK3 (unknown origin) at 10 uM by single point assay.
Data set [18] concerns the target Mitogen-activated protein kinase 10 (Homo sapiens) (UniProt P53779). Nature of the data set: Inhibition of MAPK10 (unknown origin) at 1 uM by single point assay.
For a further data set, the system named is Mus musculus. The experiment in a line: In vivo inhibition of mouse LRRK2 G2019S mutant phosphorylation at Ser935 expressed in mouse brain at 30 mg/kg, po measured after 3 hrs by ELISA. In kind it is functional. A general note: In an ELISA, binding on a coated surface is turned into a signal by an enzyme label.
Data set [19] in a line: Ratio of drug uptake in brain to plasma of mouse expressing mouse LRRK2 G2019S mutant at 100 mg/kg, po. The format is ADME, organism-based. Set-up: dose 100 mg/kg, route oral. The following applies: read-out: BPR.
The test system of another data set is Plasma. Nature of the data set: Plasma concentration in mouse expressing mouse LRRK2 G2019S mutant at 30 mg/kg, po. The format is ADME, organism-based. Set-up: dose 30 mg/kg, route oral. The following applies: in vivo.
Another data set has as its system Brain. Nature of the data set: Drug uptake in brain of mouse expressing mouse LRRK2 G2019S mutant at 30 mg/kg, po. In kind it is ADME, organism-based. Set-up: dose 30 mg/kg, route oral. Particulars: in vivo.

Sequence of Receptor-interacting serine/threonine-protein kinase 2 (Homo sapiens) (O43353 whole entry): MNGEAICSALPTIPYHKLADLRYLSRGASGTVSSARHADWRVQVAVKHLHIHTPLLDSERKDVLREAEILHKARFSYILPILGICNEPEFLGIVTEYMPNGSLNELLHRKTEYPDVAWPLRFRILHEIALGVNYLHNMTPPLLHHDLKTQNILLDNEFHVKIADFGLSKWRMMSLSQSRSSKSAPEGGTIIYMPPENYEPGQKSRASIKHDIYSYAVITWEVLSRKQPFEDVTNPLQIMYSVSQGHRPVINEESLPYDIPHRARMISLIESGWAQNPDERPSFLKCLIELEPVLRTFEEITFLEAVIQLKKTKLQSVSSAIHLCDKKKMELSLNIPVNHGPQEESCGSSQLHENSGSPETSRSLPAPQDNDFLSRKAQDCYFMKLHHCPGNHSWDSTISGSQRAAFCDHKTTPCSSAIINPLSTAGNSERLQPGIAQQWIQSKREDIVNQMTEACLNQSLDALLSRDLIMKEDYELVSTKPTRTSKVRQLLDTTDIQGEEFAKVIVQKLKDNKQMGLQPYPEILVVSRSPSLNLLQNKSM
Sequence of Dual specificity tyrosine-phosphorylation-regulated kinase 1B (Homo sapiens) (Q9Y463 whole entry, looked up): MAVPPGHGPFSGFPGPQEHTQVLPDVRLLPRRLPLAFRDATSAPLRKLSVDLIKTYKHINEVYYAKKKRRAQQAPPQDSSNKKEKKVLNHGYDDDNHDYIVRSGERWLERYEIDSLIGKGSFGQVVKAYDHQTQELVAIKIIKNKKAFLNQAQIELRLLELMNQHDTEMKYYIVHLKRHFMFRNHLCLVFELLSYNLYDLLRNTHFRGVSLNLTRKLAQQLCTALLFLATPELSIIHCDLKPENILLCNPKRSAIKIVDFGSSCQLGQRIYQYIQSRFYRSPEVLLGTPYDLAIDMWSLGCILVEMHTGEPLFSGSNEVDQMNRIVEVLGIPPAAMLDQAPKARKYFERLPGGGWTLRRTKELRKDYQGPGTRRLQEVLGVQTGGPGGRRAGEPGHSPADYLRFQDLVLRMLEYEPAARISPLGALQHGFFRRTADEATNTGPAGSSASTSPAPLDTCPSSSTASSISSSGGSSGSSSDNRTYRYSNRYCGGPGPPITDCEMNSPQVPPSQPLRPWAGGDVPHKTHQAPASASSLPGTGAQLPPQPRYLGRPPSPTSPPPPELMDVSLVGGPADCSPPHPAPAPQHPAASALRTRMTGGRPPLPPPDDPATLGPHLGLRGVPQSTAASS
Sequence of Rho-associated protein kinase 2 (Homo sapiens) (O75116 whole entry, looked up): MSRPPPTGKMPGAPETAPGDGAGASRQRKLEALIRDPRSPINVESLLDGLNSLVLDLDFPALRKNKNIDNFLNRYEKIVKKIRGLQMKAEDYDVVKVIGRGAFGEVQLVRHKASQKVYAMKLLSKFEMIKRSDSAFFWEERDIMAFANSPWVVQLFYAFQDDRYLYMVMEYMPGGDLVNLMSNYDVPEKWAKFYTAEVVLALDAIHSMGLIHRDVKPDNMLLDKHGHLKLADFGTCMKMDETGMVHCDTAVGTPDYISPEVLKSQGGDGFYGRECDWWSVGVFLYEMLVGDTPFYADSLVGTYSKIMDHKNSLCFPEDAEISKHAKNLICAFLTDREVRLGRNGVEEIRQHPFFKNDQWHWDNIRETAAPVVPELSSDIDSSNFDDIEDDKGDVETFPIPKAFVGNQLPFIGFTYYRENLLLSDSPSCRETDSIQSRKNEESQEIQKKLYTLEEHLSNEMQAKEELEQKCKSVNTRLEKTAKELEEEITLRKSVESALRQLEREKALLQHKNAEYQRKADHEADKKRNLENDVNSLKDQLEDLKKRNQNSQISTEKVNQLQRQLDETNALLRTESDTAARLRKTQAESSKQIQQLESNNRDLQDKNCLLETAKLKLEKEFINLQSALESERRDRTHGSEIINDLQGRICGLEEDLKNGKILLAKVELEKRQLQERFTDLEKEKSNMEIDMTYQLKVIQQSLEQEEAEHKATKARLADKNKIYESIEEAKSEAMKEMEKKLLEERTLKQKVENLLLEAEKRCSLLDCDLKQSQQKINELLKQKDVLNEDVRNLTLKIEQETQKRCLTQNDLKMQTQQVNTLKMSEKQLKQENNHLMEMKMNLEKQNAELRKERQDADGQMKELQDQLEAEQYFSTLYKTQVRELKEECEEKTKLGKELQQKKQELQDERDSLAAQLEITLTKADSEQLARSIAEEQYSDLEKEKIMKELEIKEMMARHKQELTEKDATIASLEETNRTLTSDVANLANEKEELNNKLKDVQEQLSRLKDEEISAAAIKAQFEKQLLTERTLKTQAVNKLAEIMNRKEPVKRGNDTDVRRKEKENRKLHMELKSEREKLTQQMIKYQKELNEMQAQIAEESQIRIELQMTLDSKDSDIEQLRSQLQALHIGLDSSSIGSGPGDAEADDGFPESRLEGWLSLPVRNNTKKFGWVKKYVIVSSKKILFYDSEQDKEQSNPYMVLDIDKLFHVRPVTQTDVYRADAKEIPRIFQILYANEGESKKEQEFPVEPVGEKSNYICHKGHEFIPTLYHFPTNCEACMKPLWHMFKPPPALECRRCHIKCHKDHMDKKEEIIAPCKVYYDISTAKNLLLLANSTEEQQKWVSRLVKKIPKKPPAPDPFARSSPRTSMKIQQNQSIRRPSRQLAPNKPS
Sequence of Protein kinase C beta type (Homo sapiens) (P05771 2-671 limits assumed): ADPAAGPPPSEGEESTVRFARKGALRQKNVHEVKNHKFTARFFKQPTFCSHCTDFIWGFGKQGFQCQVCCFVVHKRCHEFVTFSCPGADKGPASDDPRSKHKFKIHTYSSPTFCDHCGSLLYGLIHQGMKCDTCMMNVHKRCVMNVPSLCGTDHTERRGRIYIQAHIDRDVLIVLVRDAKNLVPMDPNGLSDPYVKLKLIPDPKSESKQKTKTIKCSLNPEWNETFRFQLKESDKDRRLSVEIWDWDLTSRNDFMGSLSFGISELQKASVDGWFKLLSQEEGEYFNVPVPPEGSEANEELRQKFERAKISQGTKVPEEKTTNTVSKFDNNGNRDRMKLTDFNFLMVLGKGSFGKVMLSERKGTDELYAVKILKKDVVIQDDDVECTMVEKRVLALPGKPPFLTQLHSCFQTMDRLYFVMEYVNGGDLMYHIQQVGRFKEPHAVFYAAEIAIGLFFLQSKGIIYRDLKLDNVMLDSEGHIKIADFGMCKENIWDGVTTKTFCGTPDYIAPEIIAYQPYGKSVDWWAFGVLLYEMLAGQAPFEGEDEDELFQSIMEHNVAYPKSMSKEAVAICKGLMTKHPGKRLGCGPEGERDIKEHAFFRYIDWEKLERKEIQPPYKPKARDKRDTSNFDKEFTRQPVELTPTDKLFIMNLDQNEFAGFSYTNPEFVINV
Sequence of Proto-oncogene tyrosine-protein kinase receptor Ret (Homo sapiens) (P07949 whole entry): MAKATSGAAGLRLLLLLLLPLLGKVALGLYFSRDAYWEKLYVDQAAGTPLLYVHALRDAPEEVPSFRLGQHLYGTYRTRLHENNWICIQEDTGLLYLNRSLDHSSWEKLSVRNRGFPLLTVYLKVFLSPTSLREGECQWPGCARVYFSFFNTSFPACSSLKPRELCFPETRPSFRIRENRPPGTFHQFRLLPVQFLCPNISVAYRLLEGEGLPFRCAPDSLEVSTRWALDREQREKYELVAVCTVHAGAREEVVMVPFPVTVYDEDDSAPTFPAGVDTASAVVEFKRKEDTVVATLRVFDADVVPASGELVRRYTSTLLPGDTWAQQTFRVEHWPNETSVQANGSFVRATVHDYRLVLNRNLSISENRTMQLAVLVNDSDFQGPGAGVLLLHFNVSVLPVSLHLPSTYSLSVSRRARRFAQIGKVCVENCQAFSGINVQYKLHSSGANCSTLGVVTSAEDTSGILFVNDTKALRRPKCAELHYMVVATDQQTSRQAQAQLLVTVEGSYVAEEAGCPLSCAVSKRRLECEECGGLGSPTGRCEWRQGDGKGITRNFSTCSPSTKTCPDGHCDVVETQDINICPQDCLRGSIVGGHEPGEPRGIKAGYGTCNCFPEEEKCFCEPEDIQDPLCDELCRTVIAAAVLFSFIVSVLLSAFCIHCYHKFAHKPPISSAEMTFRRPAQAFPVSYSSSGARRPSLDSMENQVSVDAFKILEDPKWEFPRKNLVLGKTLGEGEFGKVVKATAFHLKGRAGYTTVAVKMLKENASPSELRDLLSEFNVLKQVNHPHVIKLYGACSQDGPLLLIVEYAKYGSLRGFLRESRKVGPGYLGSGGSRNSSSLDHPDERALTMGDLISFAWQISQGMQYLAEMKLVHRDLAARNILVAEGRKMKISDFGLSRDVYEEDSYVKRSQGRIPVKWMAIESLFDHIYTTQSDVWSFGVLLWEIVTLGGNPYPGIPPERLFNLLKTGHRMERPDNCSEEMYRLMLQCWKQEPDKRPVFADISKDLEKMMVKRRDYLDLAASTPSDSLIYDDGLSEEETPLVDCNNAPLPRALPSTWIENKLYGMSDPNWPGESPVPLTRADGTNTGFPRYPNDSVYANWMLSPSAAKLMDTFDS
Sequence of RAC-alpha serine/threonine-protein kinase (Homo sapiens) (P31749 whole entry): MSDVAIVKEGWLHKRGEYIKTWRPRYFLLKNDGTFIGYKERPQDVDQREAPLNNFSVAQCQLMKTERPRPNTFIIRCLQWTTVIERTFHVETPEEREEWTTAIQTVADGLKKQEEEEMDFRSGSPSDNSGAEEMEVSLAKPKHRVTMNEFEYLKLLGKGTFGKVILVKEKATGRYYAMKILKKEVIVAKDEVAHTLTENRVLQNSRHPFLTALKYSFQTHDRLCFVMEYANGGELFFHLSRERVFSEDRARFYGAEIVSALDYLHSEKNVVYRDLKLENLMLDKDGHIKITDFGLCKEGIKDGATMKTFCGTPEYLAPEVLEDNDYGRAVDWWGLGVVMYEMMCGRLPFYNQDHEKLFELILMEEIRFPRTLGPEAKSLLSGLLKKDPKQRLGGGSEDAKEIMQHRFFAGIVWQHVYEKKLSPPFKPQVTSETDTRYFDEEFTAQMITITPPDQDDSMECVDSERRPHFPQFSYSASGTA

With `C[C@@H](Nc1c(C#N)cnc2cc(-c3ccc(-n4ccoc4=O)cc3)ccc12)C1CC1`, the inhibition in data set [1] came out at 24%; in [2], 11%; in data set [3] it was 39%; in [4], 16%; in data set [5], 6%; in data set [6], 12%. Besides, the inhibition was 0% in data set [7]; -5% in data set [8]; -2% in data set [9]; 56% in data set [10]; 71% in data set [11]; 30% in data set [12]. In addition, the inhibition was 0% in data set [13]; -2% in data set [14]; 30% in [15]; -2% in data set [16]; 6% in data set [17].
On to `CC(C)Nc1c(C#N)cnc2cc(-c3cnn(C)c3)ccc12`, for which the inhibition in data set [18] is 4%. In the data set on Mus musculus, this compound displayed an inhibition in vivo at 30 mg/kg of 30%. The Kp in data set [19] worked out at 2.1. In the data set on Plasma, this compound gave a Cp of 4.7 ng/mL. In the data set with Brain, this compound had a Drug uptake of 4 ng/mL.
